The record followed here is patent US10618900B2, “5-aromatic alkynyl substituted benzamide compound and preparation method, pharmaceutical composition, and use thereof” (SHANGHAI INSTITUTE OF MATERIA MEDICA, CHINESE ACADEMY OF …, priority 2015, dated 2020).

Where two headings read alike, the source gives them in different places.

One may read the AUC(0-inf) as total exposure, with the tail of the curve extrapolated. Read a high AUC(0-inf) as more exposure. A word on the Cmax: it is the highest concentration seen after dosing. What is called MRT is the average time that molecules of a dose stay in the body. The term Tmax denotes the time at which the peak concentration occurs. By bioavailability is commonly meant dose-corrected exposure relative to a reference, in per cent. A word on the half-life: it is the time needed for the level to fall by half in the phase considered. High values mean slow decline, low ones rapid decline. The IC50 is the concentration needed to halve the response being measured.

Data set [1] deals with mice. Description: Mouse tail suspension experiment. The data set is classed as in vivo. The conditions noted are these: 20 mg/kg dose, within 6 min, FIG. 1. The text has this:
Experimental principle: Tail Suspension Test (TST) is a classic method which can quickly evaluate the efficacy of antidepressant drugs, excitement drugs, and sedative drugs. The principle is to use the status that the mouse give up struggle and enter the unique depression status after the tail was suspended and the attempt to escape was failed.
Experimental method: 20-24 g male mice were selected and the site at 2 cm part from the end of the tail was attached to a horizontal stick, so that the animal entered inverted state, and it's head was about 5 cm from the table, and boards were hung on both sides to separate the animal's sight. The immobility time of the administration group and the control group within 6 min were compared.

Data set [2] is described as follows: Pharmacokinetic experiment in rats. The data set is classed as in vivo. To be noted: rat; for bioavailability: gavage 20 mg/kg vs intravenous 10 mg/kg, read-out: F (absolute bioavailability). As for the experimental part: Six healthy rats weighing 150-200 g were randomly divided into […] (n=3). The rats were given 10 mL/kg ZD043 by gavage and intravenous injection. The dose of gavage was 20 mg/kg, and the dose of intravenous administration was 10 mg/kg. The drug was formulated in DMSO/Tween 80/saline (5:5:90, v/v/v). The rats were fasted for 12 h before testing, and drinked water ad libitum. 2 h after administration, all rats ate together.
Gavage administration: 0, 0.25, 0.5, 1.0, 2.0, 4.0, 6.0, 8.0 and 24 h after administration;
Intravenous administration: 0, 5 min, 0.25, 0.5, 1.0, 2.0, 4.0, 6.0, 8.0 and 24 h after administration;
0.3 mL of blood was collected at the above time points from the rat eye vein venous plexus, placed in heparinized test tube and centrifugated at 11000 rpm for 5 min. Plasma was separated and the sample was frozed in −20° C. refrigerator.

The target in data set [3] is mGluR5 (Homo sapiens (Human), UniProt P41594). Description: In vitro activity test for mGluR5, HDB Fluo-8 calcium fluorescence detection (FLIPR). The data set is classed as cell-based. To be noted: HEK293/mGluR5 cell line. From the text:
Experimental instrument: FLIPR Tetra real-time fluorescence imaging analysis system
Experimental method: HDB Fluo-8 calcium fluorescence detection method
Experimental principle: HDB Fluo-8 calcium ion fluorescence detection method is a fast, simple and reliable fluorescence detection method of intracellular calcium concentration changes. The Fluo 8-AM fluorescent dye is an […] derivative of Fluo 8 which can easily penetrate the cell membrane into the cell by culture. The fluorescent dye into the cell will be hydrolyzed by intracellular esterase, the resulting Fluo 8 cannot easily pass through the lipid bimolecular membrane as a polar molecule, and will retain in the cell, and combine with calcium (Ca^2+) to produce fluoresces.
Cells expressing GPCR receptor protein (mGluR5) were first calibrated with a calcium ion sensitive fluorescent probe and then stimulated with the compound. After stimulation, the activation of the receptor lead to the calcium ion mobilization, and the fluorescent probe captures the calcium ion to induce the fluorescence signal. The signal can be read by a fluorescent plate reader. The fluorescent plate reader contains a sampling head for compound addition, thus enabling the change of the fluorescence value of the compound be read in real time. […]

mGluR5, sequence (P41594 21-1212): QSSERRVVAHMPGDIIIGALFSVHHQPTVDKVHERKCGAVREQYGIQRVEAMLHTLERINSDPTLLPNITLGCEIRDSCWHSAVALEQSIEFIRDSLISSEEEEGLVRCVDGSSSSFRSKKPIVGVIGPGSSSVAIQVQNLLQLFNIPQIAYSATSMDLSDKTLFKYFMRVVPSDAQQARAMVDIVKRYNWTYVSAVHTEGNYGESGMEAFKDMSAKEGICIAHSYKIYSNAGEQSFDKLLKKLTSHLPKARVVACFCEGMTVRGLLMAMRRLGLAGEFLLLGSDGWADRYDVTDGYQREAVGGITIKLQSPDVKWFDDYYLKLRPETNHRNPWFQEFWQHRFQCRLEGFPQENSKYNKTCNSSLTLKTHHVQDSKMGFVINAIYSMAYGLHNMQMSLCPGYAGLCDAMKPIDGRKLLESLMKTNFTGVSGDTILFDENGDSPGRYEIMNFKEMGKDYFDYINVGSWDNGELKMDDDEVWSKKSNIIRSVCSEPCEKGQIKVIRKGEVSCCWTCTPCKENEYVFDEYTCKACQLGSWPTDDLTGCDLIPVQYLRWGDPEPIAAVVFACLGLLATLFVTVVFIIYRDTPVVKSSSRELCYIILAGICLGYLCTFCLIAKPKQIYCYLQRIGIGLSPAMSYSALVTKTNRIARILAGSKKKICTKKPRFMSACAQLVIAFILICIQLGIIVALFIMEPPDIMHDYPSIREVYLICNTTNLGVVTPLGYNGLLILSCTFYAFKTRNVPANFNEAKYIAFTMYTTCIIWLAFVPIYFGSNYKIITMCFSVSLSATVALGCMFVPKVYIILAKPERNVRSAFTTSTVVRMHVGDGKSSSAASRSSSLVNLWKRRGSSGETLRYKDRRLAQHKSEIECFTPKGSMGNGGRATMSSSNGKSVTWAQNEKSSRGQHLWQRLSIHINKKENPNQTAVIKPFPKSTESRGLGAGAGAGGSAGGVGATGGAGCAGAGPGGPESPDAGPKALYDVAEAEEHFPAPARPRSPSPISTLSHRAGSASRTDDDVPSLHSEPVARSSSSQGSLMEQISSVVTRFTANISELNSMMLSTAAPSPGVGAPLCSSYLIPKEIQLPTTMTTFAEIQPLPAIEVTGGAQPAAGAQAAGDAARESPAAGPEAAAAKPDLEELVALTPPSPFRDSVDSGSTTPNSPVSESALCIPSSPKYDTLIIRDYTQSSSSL

Turning to `Cc1nc(C#Cc2ccc(F)c(C(=O)Nc3cccnc3)c2)cs1` [ZD043], the “immobility time in the mouse tail suspension test” value in data set [1] is reported as “significantly reduced”. Further, the AUC(0-t) in data set [2] (plasma, intravenous, vein 10 mg/kg, read-out: AUC0-t) came out at 66400 ng·h/mL; in data set [2] (plasma, iv, vein 10 mg/kg, read-out: AUC0-t), 66400 ng·h/mL; in data set [2] (plasma, po, gavage 20 mg/kg, read-out: AUC0-t) it was 10500 ng·h/mL; in data set [2] (gavage 20 mg/kg), 10491.2 ng·h/mL. The AUC(0-inf) in data set [2] (plasma, iv, vein 10 mg/kg) was 66400 ng·h/mL; in data set [2] (plasma, po, gavage 20 mg/kg), 10500 ng·h/mL. Further, the Cmax in data set [2] (plasma, iv, vein 10 mg/kg) stood at 75400 ng/mL; in data set [2] (plasma, po, gavage 20 mg/kg), 7120 ng/mL. The MRT in data set [2] (plasma, iv, vein 10 mg/kg) was 37.2 min; in data set [2] (plasma, po, gavage 20 mg/kg), 63.6 min. Further, the time to peak (Tmax) in data set [2] (plasma, iv, vein 10 mg/kg) was found to be 4.98 min; in data set [2] (plasma, po, gavage 20 mg/kg), 15 min. The bioavailability in data set [2] (plasma, oral) was found to be 31.6%; in data set [2] (plasma, po) it was 31.6%. Also, in data set [2] (gavage 20 mg/kg), the t1/2 amounted to 78 min. The half-life is 25.8 min in data set [2] (plasma, iv, 10 mg/kg, vein 10 mg/kg) and 78.1 min in data set [2] (plasma, po, 20 mg/kg, gavage 20 mg/kg). Moreover, the IC50 in data set [3] worked out at 5.6 nM.
